Laboratory results taken from patent US20130172308A1, “ANTIMICROBIAL AGENTS” (John Grant COLLINS, priority 2011, published 2013).

Tests used:
[1] = test system: Plasmodium falciparum strain W2; test: [3H]-hypoxanthine growth inhibition assay; assay type: cell-based; settings: Plasmodium falciparum, W2, 96 h
Method: (§1) The in vitro antimalarial activities of two of the dinuclear ruthenium(II) complexes and chloroquine were assessed by exposing P. falciparum strains to ten serially diluted two-fold concentrations of each compound. Parasite growth was measured by uptake of tritiated [^3H]-hypoxanthine into newly synthesised parasitic DNA.
(§2) The [^3H]-hypoxanthine growth inhibition assay (Desjardins et al., 1979 Antimicrobial Agents Chemother 16: 710-718) was used to evaluate the in vitro antimalarial activity of the compounds. Briefly, synchronised parasite cultures (>90% rings, 6 to 8 h post invasion) in [^3H]-RPMI-LPLF complete medium with 0.5% parasitaemia and 2% haematocrit were exposed to the compounds at ten two-fold concentrations, ranging from 10,000 to 20 nM in 96-well microtitre plates. Chloroquine was used as a reference drug. Uninfected RBCs at 2% haematocrit were used as background controls. For the 96 h exposure period, the plates were incubated in the gas mixture at 37° C. for approximately 48 h, followed by the addition of 0.2 μCi of ^3H-hypoxanthine (GE Healthcare, Amersham) in [^3H]-RPMI-1640-LPLF to each well and a further 48 h of incubation and then frozen at −20° C. Plates were thawed and harvested using Tomtech Harvester 96 Mach III and radioactive counts were obtained using Wallac TriLux 1450 Microbeta Liquid Scintillation Counter (Perkin Elmer, USA). All assays were performed in triplicate for each strain and at least on two separate occasions.
(§3) Tritiated hypoxanthine uptake data were analysed in Graphpad Prism V5.0 software (GraphPad Software Inc. USA). The concentrations of the dinuclear ruthenium(II) complexes and chloroquine were transformed into logarithmic values. After subtracting the background values, the data from drug-treated wells were normalised against drug-free control wells. Non-linear regression analysis was carried out of the compound's concentration versus parasitic hypoxanthine incorporation. The in vitro antimalarial activity of the compound is defined as inhibitory concentrations (IC50) and (IC90) that cause 50% and 90% inhibition of parasite growth as determined by measuring [^3H]-hypoxanthine incorporation.

[2] = test system: Plasmodium falciparum strain D6; test: [3H]-hypoxanthine growth inhibition assay; assay type: cell-based; settings: Plasmodium falciparum, D6, 96 h
Method: as §1, §2, §3

S. aureus ATCC 25923 = test: MIC determination, broth micro-dilution (CAMHB); assay type: cell-based, Staphylococcus aureus; settings: Table 1; 37° C., 24 h
Method: (§4) Four strains of bacteria were chosen for the susceptibility tests: S. aureus ATCC 25923; MRSA (a wild clinical strain from the JCU culture collection); E. coli ATCC 25922 and P. aeruginosa ATCC 27853. The bacteria were grown on Mueller Hinton agar (OXOID, cat. No. CM0337) and suspended in growth medium cation-adjusted Mueller Hinton broth (CAMHB, OXOID, cat. No. CM0405). The MIC of each complex was determined in duplicate by standard micro-dilution methodology (British Society for Antimicrobial Chemotherapy Working Party, J. Antimicrob. Chemother., 1991, 27(suppl. D), 22) using gentamicin as the positive control. The ruthenium complexes were dissolved in CAMHB to a stock solution of […] and two-fold diluted in the broth in 96-well plates in a final volume of […] in each well. The same volume […] of bacterial suspension was added in each well making a concentration range of 0.25 mg ml^−1 to 128 mg ml^−1 for each complex. The plates were incubated at 37° C. for 24 h. The results are summarised in Table 1 below, using the following abbreviations: • Rubpm=ΔΔ-[{Ru(phen)2}2(μ-2,2′-bipyrimidine)]Cl4 • Rudppm=ΔΔ-[{Ru(phen)2}2(μ-4,6-bis(2-pyridyl)pyrimidine)]Cl4 • Rubb7trinuclear=Δ*Δ*-[{Ru*(phen)2}(μ-bb7){Ru(phen)}(μ-bb7){Ru*(phen)2}]Cl6 (only the two terminal metal centres are chiral, the two central metal centres are racemic) • Rubb7tetranuclear=Δ*Δ*-[{Ru*(phen)2}(μ-bb7) {Ru(phen)}(μ-bb7){Ru(phen)}(μ-bb7)-{Ru*(phen)2}]Cl8 (only the two terminal metal centres are chiral, the two central metal centres are racemic)
(§5) Further MIC assays and Minimum Bactericidal Concentration (MBC) assays were conducted against Gram-positive and Gram-negative bacterial strains using symmetric and non-symmetric, inert and labile complexes.

[3] = test system: MRSA (a wild clinical strain from the JCU culture collection); test: MIC determination, broth micro-dilution (CAMHB); assay type: cell-based, methicillin-resistant S. aureus; settings: Table 1; 37° C., 24 h
Method: as §4, §5

E. faecalis = test: Further MIC assays, whole spectrum bacteria (CAMHB); assay type: cell-based; design: unit not given beside the values; settings: Table 3; Broth: CAMHB
Method: (§6) Further MIC assays were conducted against five different bacteria with Rubbn (n=7, 10, 12, 16), two rigid dinuclear species (bridges bpm and dppm) and Gentamicin—Whole spectrum bacteria MIC test results (Broth: CAMHB).

P. aeruginosa ATCC 27853 = test: MIC determination, broth micro-dilution (CAMHB); assay type: cell-based, Pseudomonas aeruginosa; settings: Table 1; 37° C., 24 h
Method: as §4, §5

VRE = test: Further MIC assays, whole spectrum bacteria (CAMHB); assay type: cell-based, vancomycin-resistant Enterococcus; settings: Table 3; Broth: CAMHB
Method: as §6

S. epidermidis = test: as above; assay type: cell-based; settings: Table 3; Broth: CAMHB
Method: as §6

S. typhimurium = test: as above; assay type: cell-based; settings: Table 3; Broth: CAMHB
Method: as §6

E. coli ATCC 25922 = test: MIC determination, broth micro-dilution (CAMHB); assay type: cell-based, Escherichia coli; settings: Table 1; 37° C., 24 h
Method: as §4, §5

THP-1 cells = test: Cytotoxicity assay (cell count with haemacytometer); assay type: cell-based, human
Method: Consequently, the toxicity (IC50) against THP-1 cells (a human acute monocytic leukemia cell line and a good model for nucleated eukaryotic cells) was examined (J. […] Human monocytic THP-1 cells were obtained from the American Type Culture Collection (ATCC, Rockville, Md., USA). […] Cells were seeded at a density of 5×10^5 per well in a sterile flat bottom 96-well plate, and incubated with the desired drug concentration in duplicate, to a total volume of […]. The concentration range for all the complexes was between […]. The plates containing each complex were respectively incubated for 24 and 48 h at 37° C. with 5% CO2. After incubation, the concentration of cells in each well was counted with a haemacytometer and IC50 values were calculated and the results are summarise in Table 6 below: […]

A. baumanii = test: Further MIC assays, whole spectrum bacteria (CAMHB); assay type: cell-based; design: unit not given here; settings: Table 3; Broth: CAMHB
Method: as §6

human red blood cells = test: Haemolytic assay; assay type: cell-based; settings: for First indication (>2%) of haemolysis: 24 h incubation with red blood cells
Method: Freshly-drawn human blood was collected using lithium heparin vacuum blood collection tubes (Vacutainer, BD Australia). Erythrocytes were separated by centrifugation for 10 min at 1000 g at 10° C. and washed six times with phosphate-buffered saline (PBS) solution and diluted with PBS to a 10% solution. The concentration of erythrocytes was determined by haemocrit centrifugation (Biofuge Haemo, Heraeus instruments). A 1% Triton-X solution was prepared as the positive control. The complexes to be tested were dissolved in PBS to a stock solution of 2048 mg ml^−1 and two-fold diluted in PBS in round-bottomed 96-well plates in a final volume of […] in each well. […] red blood cell suspension samples were added to the wells making a concentration range from […] to 512 μg ml^−1 for Rubbn (n=10, 12, 16) and 2 μg ml^−1 to 1024 μg ml^−1 for Rubb7, and the plates with each complex were respectively incubated for 1, 2, 4, 8 and 24 h at 37° C. After incubation, the plates were centrifuged at 1000 g for 4 min. […] of supernatant in each well was transferred to a corresponding well in a new 96-well microtitre plate. The absorbance of each well was measured at 540 nm using a plate reader (Mutiskan Ascent, Thermo). Each complex was analysed in duplicate. The solutions of the metal complex at the same tested concentrations without erythrocytes were measured as a negative control.
The extent of haemolysis induced by incubation of the ruthenium complexes for 24 h with freshly-collected human red blood cells is shown in FIG. 1 and summarised in Table 5 below: […]

[4] = all the tested concentrations, over 24 h

Molecule	MIC S. aureus (S. aureus ATCC 25923) [µg/mL]	MIC MRSA [3] [µg/mL]	MIC E. faecalis (E. faecalis)	MIC P. aeruginosa (P. aeruginosa ATCC 27853) [µg/mL]	MIC VRE (VRE)	MIC S. epidermidis (S. epidermidis)	MIC S. typhimurium (S. typhimurium)	MIC E. coli (E. coli ATCC 25922) [µg/mL]	IC50 (THP-1 cells; 24 h) [µM]	IC50 THP-1 (THP-1 cells; 24 h) [µg/mL]	IC50 (THP-1 cells; 48 h) [µM]	IC50 THP-1 (THP-1 cells; 48 h) [µg/mL]	MIC A. baumanii (A. baumanii)	First indication (>2%) of haemolysis (human red blood cells) [µg/mL]	haemolytic activity (human red blood cells; [4])	haemolytic activity (human red blood cells; at 10 μM, over 24 h)	other results
CCN(CC)CCCC(C)Nc1ccnc2cc(Cl)ccc12 (centres unmarked) [chloroquine, reference compound]																	IC50 ([1]; read-out: IC50 W2): 0.176 µM; IC90 ([1]; read-out: IC90 W2): 0.383 µM; IC50 ([2]; read-out: IC50 D6): 0.0098 µM; IC90 ([2]; read-out: IC90 D6): 0.0125 µM
Cc1cc[n+]2c(c1)-c1cc(CCCCCCCc3cc[n+]4c(c3)-c3cc(C)cc[n+]3[Ru-4]435([n+]4cccc6ccc7ccc[n+]3c7c64)[n+]3cccc4ccc6ccc[n+]5c6c43)cc[n+]1[Ru-4]213([n+]2cccc4ccc5ccc[n+]1c5c42)[n+]1cccc2ccc4ccc[n+]3c4c21.F[P-](F)(F)(F)(F)F.F[P-](F)(F)(F)(F)F.F[P-](F)(F)(F)(F)F.F[P-](F)(F)(F)(F)F [ΔΔ-Rubb7, [{Ru(phen)2}2(μ-bb7)](PF6)4]	16	32	32	128	16	1	>128	16	266	400	173	260	64	64	no significant haemolytic activity		
ΔΔ-[{Ru(phen)2}2(μ-bb12)](PF6)4 [ΔΔ-Rubb12]	1	1	4	16	2	0.5	8	2	86	135	57	90	8	16		essentially exhibited no haemolysis	
Cc1ccnc(-c2cc(CCCCCCCCCCc3ccnc(-c4cc(C)ccn4)c3)ccn2)c1.F[P-](F)(F)(F)(F)F.F[P-](F)(F)(F)(F)F.F[P-](F)(F)(F)(F)F.F[P-](F)(F)(F)(F)F.[Ru+2].[Ru+2].c1cnc2c(c1)ccc1cccnc12.c1cnc2c(c1)ccc1cccnc12.c1cnc2c(c1)ccc1cccnc12.c1cnc2c(c1)ccc1cccnc12 [ΔΔ-Rubb10, [{Ru(phen)2}2(μ-bb10)](PF6)4]	4	4	8	64	4	0.5	32	4	194	300	103	160	64	32	no significant haemolytic activity		
ΔΔ-[{Ru(phen)2}2(μ-2,2′-bipyrimidine)]Cl4 [Rubpm, reference compound]	>128	>128	>128	>128	>128	>128	>128	>128					>128				
ΔΔ-[{Ru(phen)2}2(μ-bb16)](PF6)4 [ΔΔ-Rubb16]	1	1	2	8	2	1	8	4	48	78	25	40	8	4		noticeably increased	haemolytic activity (human red blood cells; at 10 μM, for 8 h): low
